According to ChEMBL document CHEMBL5291721, “A preclinical secondary pharmacology resource illuminates target-adverse drug reaction associations of marketed drugs” (Nat Commun, 2023):

Tests used:
Acetylcholinesterase = Acetylcholinesterase (Homo sapiens, UniProt P22303); assay type: functional
[1] = target: T1, Muscarinic acetylcholine receptor M2 (Homo sapiens, UniProt P08172)
T1 sequence (P08172 whole entry): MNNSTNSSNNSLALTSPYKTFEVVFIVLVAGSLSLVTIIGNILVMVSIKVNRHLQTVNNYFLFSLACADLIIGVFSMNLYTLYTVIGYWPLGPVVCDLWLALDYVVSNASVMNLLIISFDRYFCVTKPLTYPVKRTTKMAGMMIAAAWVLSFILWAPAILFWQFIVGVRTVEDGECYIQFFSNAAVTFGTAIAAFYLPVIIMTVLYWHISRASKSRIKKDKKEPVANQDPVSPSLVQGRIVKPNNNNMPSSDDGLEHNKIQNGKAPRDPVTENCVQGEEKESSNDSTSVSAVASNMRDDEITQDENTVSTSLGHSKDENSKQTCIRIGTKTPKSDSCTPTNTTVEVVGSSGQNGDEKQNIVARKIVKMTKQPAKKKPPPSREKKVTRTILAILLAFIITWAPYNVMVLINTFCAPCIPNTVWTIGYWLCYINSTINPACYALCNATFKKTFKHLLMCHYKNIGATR

[2] = target: T2, 5-hydroxytryptamine receptor 1A (Homo sapiens, UniProt P08908)
T2 sequence (P08908 whole entry): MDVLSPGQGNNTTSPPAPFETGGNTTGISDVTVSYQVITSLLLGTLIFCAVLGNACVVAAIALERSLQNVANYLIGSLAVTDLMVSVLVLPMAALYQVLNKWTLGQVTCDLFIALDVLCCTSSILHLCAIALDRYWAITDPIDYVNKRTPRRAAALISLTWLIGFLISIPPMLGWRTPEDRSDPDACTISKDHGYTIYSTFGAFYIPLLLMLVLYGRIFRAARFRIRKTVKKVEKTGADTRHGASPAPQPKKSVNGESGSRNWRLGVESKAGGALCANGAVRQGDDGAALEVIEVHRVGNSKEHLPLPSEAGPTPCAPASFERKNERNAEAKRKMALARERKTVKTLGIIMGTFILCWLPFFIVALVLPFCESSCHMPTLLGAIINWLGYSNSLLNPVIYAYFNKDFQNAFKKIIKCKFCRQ

[3] = target: 3',5'-cyclic-AMP phosphodiesterase 4A (Homo sapiens, UniProt P27815); assay type: functional
Chain of 3',5'-cyclic-AMP phosphodiesterase 4A (P27815 whole entry): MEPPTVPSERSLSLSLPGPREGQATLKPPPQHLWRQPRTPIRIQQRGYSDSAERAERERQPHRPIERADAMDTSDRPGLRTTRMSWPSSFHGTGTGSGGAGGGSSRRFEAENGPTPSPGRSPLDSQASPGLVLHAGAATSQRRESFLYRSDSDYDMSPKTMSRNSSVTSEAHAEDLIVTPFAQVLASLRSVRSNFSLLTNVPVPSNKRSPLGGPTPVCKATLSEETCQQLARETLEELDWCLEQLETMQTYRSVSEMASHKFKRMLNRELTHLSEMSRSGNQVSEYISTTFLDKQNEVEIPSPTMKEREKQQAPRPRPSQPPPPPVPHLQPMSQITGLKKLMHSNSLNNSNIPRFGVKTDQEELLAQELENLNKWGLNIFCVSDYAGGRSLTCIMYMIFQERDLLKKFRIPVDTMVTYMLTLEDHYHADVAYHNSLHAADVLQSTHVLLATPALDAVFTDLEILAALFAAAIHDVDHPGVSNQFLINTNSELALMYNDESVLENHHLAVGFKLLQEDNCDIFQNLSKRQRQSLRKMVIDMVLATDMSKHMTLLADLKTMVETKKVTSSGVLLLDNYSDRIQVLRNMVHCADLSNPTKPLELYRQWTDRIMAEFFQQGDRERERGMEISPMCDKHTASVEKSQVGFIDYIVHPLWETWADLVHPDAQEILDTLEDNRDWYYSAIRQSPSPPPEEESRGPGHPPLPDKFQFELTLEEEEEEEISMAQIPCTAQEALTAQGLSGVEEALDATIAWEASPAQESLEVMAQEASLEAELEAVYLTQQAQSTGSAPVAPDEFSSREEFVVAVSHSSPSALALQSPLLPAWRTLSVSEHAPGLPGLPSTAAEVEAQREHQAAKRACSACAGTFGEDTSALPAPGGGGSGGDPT

[4] = target: T3, Prostaglandin G/H synthase 1 (Homo sapiens, UniProt P23219); assay type: functional
T3 sequence (P23219 whole entry): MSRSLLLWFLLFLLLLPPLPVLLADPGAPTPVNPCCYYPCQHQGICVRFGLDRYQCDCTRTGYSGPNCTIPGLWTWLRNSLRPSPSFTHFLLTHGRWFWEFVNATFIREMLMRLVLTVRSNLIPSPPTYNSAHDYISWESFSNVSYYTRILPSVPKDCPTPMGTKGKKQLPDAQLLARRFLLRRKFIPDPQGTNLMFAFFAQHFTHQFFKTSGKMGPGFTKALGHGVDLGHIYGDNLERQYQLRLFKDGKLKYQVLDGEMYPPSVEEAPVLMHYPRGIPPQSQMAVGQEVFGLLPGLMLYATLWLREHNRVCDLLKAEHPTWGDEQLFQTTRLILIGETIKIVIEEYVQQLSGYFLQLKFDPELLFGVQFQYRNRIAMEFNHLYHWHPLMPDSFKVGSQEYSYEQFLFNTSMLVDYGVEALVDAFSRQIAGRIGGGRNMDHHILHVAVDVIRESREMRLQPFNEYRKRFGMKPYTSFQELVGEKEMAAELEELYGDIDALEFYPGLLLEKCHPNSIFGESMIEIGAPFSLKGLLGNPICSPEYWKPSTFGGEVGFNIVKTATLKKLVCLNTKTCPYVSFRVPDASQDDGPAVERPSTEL

[5] = target: T3, Prostaglandin G/H synthase 1; assay type: functional; remark: listed apart in the source
[6] = target: T4, Alpha-1A adrenergic receptor (Homo sapiens, UniProt P35348); assay type: functional, cell-based
T4 sequence (P35348 whole entry): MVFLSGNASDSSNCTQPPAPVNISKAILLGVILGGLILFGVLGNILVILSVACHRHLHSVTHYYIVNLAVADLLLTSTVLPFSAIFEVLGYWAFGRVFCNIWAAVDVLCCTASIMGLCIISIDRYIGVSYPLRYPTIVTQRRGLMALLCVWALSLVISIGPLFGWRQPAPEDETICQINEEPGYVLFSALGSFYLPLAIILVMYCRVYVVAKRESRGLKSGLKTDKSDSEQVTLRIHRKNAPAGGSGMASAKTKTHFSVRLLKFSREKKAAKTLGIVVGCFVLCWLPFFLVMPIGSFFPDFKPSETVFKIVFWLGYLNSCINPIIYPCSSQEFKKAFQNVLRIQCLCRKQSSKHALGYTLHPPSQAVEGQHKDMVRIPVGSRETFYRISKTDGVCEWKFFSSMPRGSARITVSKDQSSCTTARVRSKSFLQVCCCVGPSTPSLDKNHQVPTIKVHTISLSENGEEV

[7] = target: 5-hydroxytryptamine receptor 2B (Homo sapiens, UniProt P41595); assay type: functional, cell-based
Chain of 5-hydroxytryptamine receptor 2B (P41595 whole entry): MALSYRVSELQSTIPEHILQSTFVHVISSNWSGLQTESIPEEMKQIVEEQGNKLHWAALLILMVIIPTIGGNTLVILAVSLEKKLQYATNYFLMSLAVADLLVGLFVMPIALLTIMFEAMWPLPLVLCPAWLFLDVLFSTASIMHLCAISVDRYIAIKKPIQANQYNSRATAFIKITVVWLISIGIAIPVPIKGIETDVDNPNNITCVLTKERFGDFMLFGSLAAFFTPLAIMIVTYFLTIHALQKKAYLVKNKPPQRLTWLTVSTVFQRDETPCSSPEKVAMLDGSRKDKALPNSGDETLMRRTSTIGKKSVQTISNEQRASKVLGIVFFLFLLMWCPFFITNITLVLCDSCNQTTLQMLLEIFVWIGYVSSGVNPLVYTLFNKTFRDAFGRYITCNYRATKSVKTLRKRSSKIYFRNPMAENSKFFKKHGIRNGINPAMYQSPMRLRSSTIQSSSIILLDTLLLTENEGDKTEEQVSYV

Progesterone receptor = target: T5, Progesterone receptor (Homo sapiens, UniProt P06401); assay type: functional
T5 sequence (P06401 whole entry): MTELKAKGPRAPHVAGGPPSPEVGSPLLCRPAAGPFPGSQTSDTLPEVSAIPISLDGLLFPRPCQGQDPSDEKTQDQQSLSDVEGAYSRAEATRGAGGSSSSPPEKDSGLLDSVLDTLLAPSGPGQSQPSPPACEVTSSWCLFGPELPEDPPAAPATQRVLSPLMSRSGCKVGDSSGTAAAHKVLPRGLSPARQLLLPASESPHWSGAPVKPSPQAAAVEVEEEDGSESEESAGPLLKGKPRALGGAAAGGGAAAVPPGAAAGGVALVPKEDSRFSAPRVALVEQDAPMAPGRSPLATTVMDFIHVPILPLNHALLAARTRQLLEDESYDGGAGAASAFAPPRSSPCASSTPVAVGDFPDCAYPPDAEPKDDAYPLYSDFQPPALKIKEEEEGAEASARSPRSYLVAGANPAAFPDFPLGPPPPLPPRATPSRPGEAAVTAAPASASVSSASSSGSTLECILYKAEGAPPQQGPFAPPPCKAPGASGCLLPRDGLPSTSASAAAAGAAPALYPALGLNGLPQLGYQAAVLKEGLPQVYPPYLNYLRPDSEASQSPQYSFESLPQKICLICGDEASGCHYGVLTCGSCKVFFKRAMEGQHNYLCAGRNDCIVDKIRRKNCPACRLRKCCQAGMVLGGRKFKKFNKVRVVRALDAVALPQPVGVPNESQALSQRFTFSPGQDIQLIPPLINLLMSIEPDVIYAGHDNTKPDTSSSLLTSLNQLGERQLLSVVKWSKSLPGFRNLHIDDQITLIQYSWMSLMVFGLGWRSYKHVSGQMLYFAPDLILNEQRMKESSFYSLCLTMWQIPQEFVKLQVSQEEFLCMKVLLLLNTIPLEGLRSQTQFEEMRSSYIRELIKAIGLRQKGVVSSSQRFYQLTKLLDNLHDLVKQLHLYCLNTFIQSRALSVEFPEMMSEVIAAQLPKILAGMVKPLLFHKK

[8] = target: Beta-2 adrenergic receptor (Homo sapiens, UniProt P07550)
Chain of Beta-2 adrenergic receptor (P07550 whole entry): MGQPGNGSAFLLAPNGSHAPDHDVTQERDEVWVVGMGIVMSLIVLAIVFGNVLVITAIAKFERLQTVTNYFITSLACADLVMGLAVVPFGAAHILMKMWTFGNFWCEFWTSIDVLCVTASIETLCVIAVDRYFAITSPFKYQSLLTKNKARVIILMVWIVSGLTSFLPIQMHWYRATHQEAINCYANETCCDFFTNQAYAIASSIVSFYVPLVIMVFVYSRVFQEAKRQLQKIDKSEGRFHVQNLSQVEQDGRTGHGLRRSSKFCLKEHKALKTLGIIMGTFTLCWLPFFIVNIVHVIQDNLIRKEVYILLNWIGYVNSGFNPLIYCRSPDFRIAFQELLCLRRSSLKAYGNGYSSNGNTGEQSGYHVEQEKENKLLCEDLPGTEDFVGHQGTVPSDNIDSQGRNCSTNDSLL

[9] = target: Gamma-aminobutyric acid receptor subunit alpha-1 (Rattus norvegicus, UniProt P62813); assay type: functional
Chain of Gamma-aminobutyric acid receptor subunit alpha-1 (P62813 whole entry): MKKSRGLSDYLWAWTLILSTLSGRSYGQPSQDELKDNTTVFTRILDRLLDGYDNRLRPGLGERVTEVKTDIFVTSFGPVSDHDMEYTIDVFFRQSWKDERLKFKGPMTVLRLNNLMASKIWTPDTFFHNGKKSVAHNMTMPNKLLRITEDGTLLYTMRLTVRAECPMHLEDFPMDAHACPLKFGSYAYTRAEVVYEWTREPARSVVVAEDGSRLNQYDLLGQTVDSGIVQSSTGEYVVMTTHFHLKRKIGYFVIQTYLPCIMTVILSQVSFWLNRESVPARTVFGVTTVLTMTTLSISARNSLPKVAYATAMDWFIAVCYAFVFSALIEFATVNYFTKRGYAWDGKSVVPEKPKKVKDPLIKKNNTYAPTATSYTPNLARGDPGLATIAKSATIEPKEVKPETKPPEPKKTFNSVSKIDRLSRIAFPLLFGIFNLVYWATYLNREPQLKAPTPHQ
Note: assay procedure not described here.

Chain of Acetylcholinesterase (P22303 whole entry): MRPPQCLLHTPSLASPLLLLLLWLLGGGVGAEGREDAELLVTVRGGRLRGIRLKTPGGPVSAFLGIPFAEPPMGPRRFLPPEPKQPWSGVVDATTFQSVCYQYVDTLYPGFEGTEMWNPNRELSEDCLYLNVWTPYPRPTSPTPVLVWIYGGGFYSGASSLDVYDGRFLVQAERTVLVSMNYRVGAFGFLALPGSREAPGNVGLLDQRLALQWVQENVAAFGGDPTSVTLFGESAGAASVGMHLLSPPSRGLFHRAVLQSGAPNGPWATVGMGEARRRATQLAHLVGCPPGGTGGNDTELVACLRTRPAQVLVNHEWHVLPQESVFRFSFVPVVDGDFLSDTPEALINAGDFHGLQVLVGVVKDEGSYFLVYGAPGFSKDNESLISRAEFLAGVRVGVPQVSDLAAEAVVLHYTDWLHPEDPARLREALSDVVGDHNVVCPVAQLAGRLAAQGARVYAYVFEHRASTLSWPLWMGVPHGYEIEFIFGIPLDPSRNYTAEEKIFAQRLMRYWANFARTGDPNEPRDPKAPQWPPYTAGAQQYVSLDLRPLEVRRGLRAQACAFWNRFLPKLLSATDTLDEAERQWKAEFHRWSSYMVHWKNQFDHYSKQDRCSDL

CC(C)N(CCNC(=O)CN1CCCC1=O)C(C)C showed an AC50 (Acetylcholinesterase) of over 30 µM, an AC50 [1] of over 30 µM and an AC50 [2] of over 30 µM. It also gave an AC50 [3] of over 30 µM, an AC50 [4] of over 30 µM and an AC50 [5] of over 30 µM.
Work on Cc1cc(N)c2ccccc2[n+]1CCCCCCCCCC[n+]1c(C)cc(N)c2ccccc21 yielded an AC50 (Acetylcholinesterase) of 0.0264 µM, an AC50 [1] of 0.0497 µM and an AC50 [2] of 2.53 µM. It also gave an AC50 [3] of 3.16 µM, an AC50 [4] of 14.8 µM and an AC50 [5] of 1.57 µM.
For CCOC(=O)[C@H](CCc1ccccc1)N[C@@H](C)C(=O)N(CC(=O)O)C1Cc2ccccc2C1, the AC50 (Acetylcholinesterase) was over 30 µM, the AC50 [1] was over 30 µM and the AC50 [2] was over 30 µM. It also gave an AC50 [3] of over 30 µM, an AC50 [4] of over 30 µM and an AC50 [5] of over 30 µM.
C=CCSCC1Nc2cc(Cl)c(S(N)(=O)=O)cc2S(=O)(=O)N1 (centres undefined) [ALTHIAZIDE] showed an AC50 (Acetylcholinesterase) of over 30 µM, an AC50 [1] of over 30 µM and an AC50 [2] of over 30 µM. It also gave an AC50 [3] of over 30 µM, an AC50 [4] of over 30 µM and an AC50 [5] of over 30 µM.
CCN(CCCc1ccccc1)CCCc1ccccc1 [ALVERINE] was tested, and the AC50 (Acetylcholinesterase) was over 30 µM, the AC50 [1] was 0.134 µM and the AC50 [2] was 0.029 µM. For the same molecule, the AC50 [3] was over 30 µM, the AC50 [4] was over 30 µM and the AC50 [5] was over 30 µM.
COc1cc(N2CCC(N3CCN(C)CC3)CC2)ccc1Nc1ncc(Cl)c(Nc2ccccc2P(C)(C)=O)n1 [BRIGATINIB] gave an AC50 (Acetylcholinesterase) of over 30 µM, an AC50 [1] of over 30 µM and an AC50 [2] of over 30 µM. It also gave an AC50 [3] of over 30 µM, an AC50 [4] of over 30 µM and an AC50 [5] of 26.3 µM.
In the case of CN(C)CCOC(c1ccccc1)c1ccc(Br)cc1 (centres undefined) [BROMODIPHENHYDRAMINE], the AC50 (Acetylcholinesterase) is reported as over 30 µM, the AC50 [1] is reported as 1.42 µM and the AC50 [2] is reported as 22.2 µM. It also gave an AC50 [3] of over 30 µM, an AC50 [4] of over 30 µM and an AC50 [5] of over 30 µM.
Molecule CCC(C)C1(CC)C(=O)NC(=O)NC1=O (centres undefined) [BUTABARBITAL] has an AC50 [6] of over 30 µM, an AC50 [7] of over 30 µM and an AC50 (Progesterone receptor) of over 30 µM.
With CC(=O)O[C@]1(C(C)=O)CC[C@H]2[C@@H]3C=C(Cl)C4=CC(=O)CC[C@]4(C)[C@H]3CC[C@@]21C [CHLORMADINONE ACETATE] the AC50 (Acetylcholinesterase) was over 30 µM, the AC50 [1] was 25.3 µM and the AC50 [2] was over 30 µM. For the same molecule, the AC50 [3] was over 30 µM, the AC50 [4] was over 30 µM and the AC50 [5] was over 30 µM.
Work on NC(=O)OCC(O)COc1ccc(Cl)cc1 (centres undefined) [CHLORPHENESIN CARBAMATE] yielded an AC50 (Acetylcholinesterase) of over 30 µM, an AC50 [1] of over 30 µM and an AC50 [2] of over 30 µM. For the same molecule, the AC50 [3] was over 30 µM, the AC50 [4] was over 30 µM and the AC50 [5] was over 30 µM.
With O=C(O)c1cn(C2CC2)c2cc(N3CCNCC3)c(F)cc2c1=O [CIPROFLOXACIN] the AC50 [3] was over 30 µM.
For COc1cc(N)c(Cl)cc1C(=O)NC1CCN(Cc2ccccc2)CC1 [CLEBOPRIDE], the AC50 [6] was over 30 µM, the AC50 [8] was over 30 µM and the AC50 [9] was 0.13 µM. For the same molecule, the AC50 [7] was over 30 µM and the AC50 (Progesterone receptor) was over 30 µM.
Cc1ccccc1N1CCN(CCc2nnc3n2CCCC3)CC1 [DAPIPRAZOLE] was tested, and the AC50 (Acetylcholinesterase) was over 30 µM, the AC50 [1] was 7.61 µM and the AC50 [2] was 0.628 µM. The AC50 [3] was over 30 µM, the AC50 [4] was over 30 µM and the AC50 [5] was over 30 µM.
